Data reported in ChEMBL document CHEMBL1138190, “Synthesis and antibacterial activity of novel C12 vinyl ketolides” (J Med Chem, 2006).
≈ marks a conversion by molar mass, not a printed value. Calls of active or inactive are those of the source. The calls are words filed in the database; no cut-off is given here.

Key:
[1] = test system: Streptococcus pneumoniae; assay: Antibacterial activity against Streptococcus pneumoniae Mef 1790; format: functional
[2] = test system: Streptococcus pneumoniae; assay: Antibacterial activity against Streptococcus pneumoniae Mef 2382; format: functional
[3] = test system: Streptococcus pneumoniae; assay: Antibacterial activity against Streptococcus pneumoniae Mef 2880; format: functional
[4] = test system: Streptococcus pneumoniae; assay: Antibacterial activity against Streptococcus pneumoniae Mef 3449; format: functional
[5] = test system: Streptococcus pneumoniae; assay: Antibacterial activity against Streptococcus pneumoniae Mef 3855; format: functional
[6] = test system: Streptococcus pneumoniae; assay: Antibacterial activity against Streptococcus pneumoniae Mef 4126; format: functional
[7] = test system: Streptococcus pneumoniae; assay: Antibacterial activity against Streptococcus pneumoniae Mef 4331; format: functional
[8] = test system: Streptococcus pneumoniae; assay: Antibacterial activity against Streptococcus pneumoniae Mef 6966; format: functional
[9] = test system: Streptococcus pneumoniae; assay: Antibacterial activity against Streptococcus pneumoniae Mef 9142; format: functional
[10] = test system: Streptococcus pneumoniae; assay: Antibacterial activity against Streptococcus pneumoniae Mef 9959; format: functional
[11] = test system: Streptococcus pneumoniae; assay: Antibacterial activity against Streptococcus pneumoniae Mef 10095; format: functional
[12] = test system: Streptococcus pneumoniae; assay: Antibacterial activity against Streptococcus pneumoniae Erm 6396; format: functional
[13] = test system: Streptococcus pneumoniae; assay: Antibacterial activity against Streptococcus pneumoniae Erm 6388; format: functional
[14] = test system: Streptococcus pneumoniae; assay: Antibacterial activity against Streptococcus pneumoniae Erm S 4297; format: functional
[15] = test system: Streptococcus pneumoniae; assay: Antibacterial activity against Streptococcus pneumoniae Erm S 4085; format: functional
[16] = test system: Streptococcus pneumoniae; assay: Antibacterial activity against Streptococcus pneumoniae Erm 867; format: functional
[17] = test system: Streptococcus pneumoniae; assay: Antibacterial activity against Streptococcus pneumoniae Erm 2218; format: functional
[18] = test system: Streptococcus pneumoniae; assay: Antibacterial activity against Streptococcus pneumoniae Erm 3120; format: functional
[19] = test system: Streptococcus pneumoniae; assay: Antibacterial activity against Streptococcus pneumoniae Erm 4290; format: functional
[20] = test system: Streptococcus pneumoniae; assay: Antibacterial activity against Streptococcus pneumoniae Erm 4589; format: functional
[21] = test system: Streptococcus pneumoniae; assay: Antibacterial activity against Streptococcus pneumoniae Erm 5354; format: functional
[22] = test system: Streptococcus pneumoniae; assay: Antibacterial activity against Streptococcus pneumoniae Erm 5399; format: functional
[23] = test system: Streptococcus pneumoniae; assay: Antibacterial activity against Streptococcus pneumoniae Erm 5415; format: functional
[24] = test system: Streptococcus pneumoniae; assay: Antibacterial activity against Streptococcus pneumoniae Erm 5554; format: functional
[25] = test system: Streptococcus pneumoniae; assay: Antibacterial activity against Streptococcus pneumoniae Erm 7985; format: functional
[26] = test system: Streptococcus pneumoniae; assay: Antibacterial activity against Streptococcus pneumoniae Erm 8257; format: functional
[27] = test system: Streptococcus pneumoniae; assay: Antibacterial activity against Streptococcus pneumoniae Erm 8339; format: functional
[28] = test system: Streptococcus pneumoniae; assay: Antibacterial activity against Streptococcus pneumoniae Erm 8919; format: functional
[29] = test system: Haemophilus influenzae; assay: Antibacterial activity against Haemophilus influenzae 2762; format: functional
[30] = test system: Streptococcus pneumoniae; assay: Antibacterial activity against Streptococcus pneumoniae Erm 8947; format: functional
[31] = test system: Streptococcus pneumoniae; assay: Antibacterial activity against Streptococcus pneumoniae Erm 10279; format: functional
[32] = test system: Streptococcus pneumoniae; assay: Antibacterial activity against Streptococcus pneumoniae Erm 5590; format: functional
[33] = test system: Staphylococcus aureus; assay: Antibacterial activity against Staphylococcus aureus 29213; format: functional
[34] = test system: Staphylococcus aureus; assay: Antibacterial activity against Staphylococcus aureus 33591; format: functional
[35] = test system: Staphylococcus epidermidis; assay: Antibacterial activity against Staphylococcus epidermidis 14990; format: functional
[36] = test system: Staphylococcus epidermidis; assay: Antibacterial activity against Staphylococcus epidermidis f50654; format: functional
[37] = test system: Enterococcus faecalis; assay: Antibacterial activity against Enterococcus faecalis 29212; format: functional
[38] = test system: Enterococcus faecalis; assay: Antibacterial activity against Enterococcus faecalis bc11148-2; format: functional
[39] = test system: Streptococcus pyogenes; assay: Antibacterial activity against Streptococcus pyogenes 8668; format: functional
[40] = test system: Streptococcus pneumoniae; assay: Antibacterial activity against Streptococcus pneumoniae 49619; format: functional
[41] = test system: Streptococcus pneumoniae; assay: Antibacterial activity against Streptococcus pneumoniae 297-749; format: functional
[42] = test system: Streptococcus pneumoniae; assay: Antibacterial activity against Streptococcus pneumoniae 280-962; format: functional
[43] = test system: Streptococcus pneumoniae; assay: Antibacterial activity against Streptococcus pneumoniae Erm 6849; format: functional
[44] = test system: Streptococcus pneumoniae; assay: Antibacterial activity against Streptococcus pneumoniae Mef 5654; format: functional
[45] = test system: Streptococcus pneumoniae; assay: Antibacterial activity against Streptococcus pneumoniae Mef S 3427; format: functional
[46] = test system: Haemophilus influenzae; assay: Antibacterial activity against Haemophilus influenzae 49247; format: functional
[47] = Plasma half life in Sprague-Dawley rat at 5 mg/kg, iv; format: ADME, organism-based; parameters: dose 5 mg/kg, route intravenous
[48] = Plasma half life in Sprague-Dawley rat at 15 mg/kg, po; format: ADME, organism-based; parameters: dose 15 mg/kg, route oral
[49] = Lung half life in Sprague-Dawley rat at 15 mg/kg, po; format: ADME, organism-based; parameters: dose 15 mg/kg, route oral
[50] = Oral bioavailability in Sprague-Dawley rat at 15 mg/kg, po; format: ADME, organism-based; conditions: in vivo
[51] = test system: Rattus norvegicus; assay: Efficacy against Streptococcus pneumoniae Erm in Sprague-Dawley rat lung infection model at 50 mg/kg; format: functional, organism-based; parameters: dose 50 mg/kg
[52] = test system: Rattus norvegicus; assay: Efficacy against Haemophilus influenzae in Sprague-Dawley rat lung infection model at 50 mg/kg; format: functional, organism-based; parameters: dose 50 mg/kg
[53] = test system: Rattus norvegicus; assay: Plasma AUC in Sprague-Dawley rat at 5 mg/kg, iv; format: ADME, organism-based; parameters: dose 5 mg/kg, route intravenous; conditions: in vivo
[54] = Lung-to-plasma AUC ratio in Sprague-Dawley rat at 5 mg/kg, iv; format: ADME, organism-based; parameters: dose 5 mg/kg, route intravenous; conditions: lung and plasma
[55] = Volume of distribution in Sprague-Dawley rat at 5 mg/kg, iv and 15 mg/kg, po; format: ADME, organism-based; conditions: in vivo, read-out: Vdss
[56] = test system: Streptococcus pneumoniae; assay: Antibacterial activity against Streptococcus pneumoniae Mef 5649; format: functional
[57] = test system: Streptococcus pneumoniae; assay: Antibacterial activity against Streptococcus pneumoniae Mef S 3435; format: functional
[58] = test system: Streptococcus pneumoniae; assay: Antibacterial activity against Streptococcus pneumoniae Mef 41; format: functional
[59] = test system: Streptococcus pneumoniae; assay: Antibacterial activity against Streptococcus pneumoniae Mef 953; format: functional
[60] = test system: Streptococcus pneumoniae; assay: Antibacterial activity against Streptococcus pneumoniae Mef 983; format: functional
[61] = test system: Streptococcus pneumoniae; assay: Antibacterial activity against Streptococcus pneumoniae Mef 1556; format: functional
[62] = test system: Streptococcus pneumoniae; assay: Antibacterial activity against Streptococcus pneumoniae Mef 1566; format: functional

MIC [1]: 0.2 µg/mL (≈ 0.239 µM)
MIC [2]: 0.1 µg/mL (≈ 0.119 µM)
MIC [3]: 0.2 µg/mL (≈ 0.239 µM)
MIC [4]: 0.2 µg/mL (≈ 0.239 µM)
MIC [5]: 0.2 µg/mL (≈ 0.239 µM)
MIC [6]: ≤ 0.05 µg/mL
MIC [7]: 0.4 µg/mL (≈ 0.477 µM)
MIC [8]: 0.2 µg/mL (≈ 0.239 µM)
MIC [9]: 0.4 µg/mL (≈ 0.477 µM)
MIC [10]: 0.2 µg/mL (≈ 0.239 µM)
MIC [11]: ≤ 0.05 µg/mL
MIC [12]: 0.1 µg/mL (≈ 0.119 µM)
MIC [13]: 3.13 µg/mL (≈ 3.73 µM)
MIC [14]: 0.025 µg/mL (≈ 0.0298 µM)
MIC [15]: 0.025 µg/mL (≈ 0.0298 µM)
MIC [16]: 0.025 µg/mL (≈ 0.0298 µM)
MIC [17]: 0.1 µg/mL (≈ 0.119 µM)
MIC [18]: 0.2 µg/mL (≈ 0.239 µM)
MIC [19]: 0.05 µg/mL (≈ 0.0597 µM)
MIC [20]: 0.025 µg/mL (≈ 0.0298 µM)
MIC [21]: 0.025 µg/mL (≈ 0.0298 µM)
MIC [22]: 0.025 µg/mL (≈ 0.0298 µM)
MIC [23]: 0.025 µg/mL (≈ 0.0298 µM)
MIC [24]: 0.78 µg/mL (≈ 0.931 µM)
MIC [25]: ≤ 0.013 µg/mL
MIC [26]: ≤ 0.013 µg/mL
MIC [27]: 1.56 µg/mL (≈ 1.86 µM)
MIC [28]: 0.025 µg/mL (≈ 0.0298 µM)
MIC [29]: 1.56 µg/mL (≈ 1.86 µM)
MIC [30]: 0.4 µg/mL (≈ 0.477 µM)
MIC [31]: 0.025 µg/mL (≈ 0.0298 µM)
MIC [32]: 0.025 µg/mL (≈ 0.0298 µM)
MIC [33]: 0.2 µg/mL (≈ 0.239 µM)
MIC [34]: > 50 µg/mL
MIC [35]: 0.2 µg/mL (≈ 0.239 µM)
MIC [36]: 0.2 µg/mL (≈ 0.239 µM)
MIC [37]: 0.1 µg/mL (≈ 0.119 µM)
MIC [38]: 0.78 µg/mL (≈ 0.931 µM)
MIC [39]: ≤ 0.05 µg/mL
MIC [40]: ≤ 0.05 µg/mL
MIC [41]: ≤ 0.05 µg/mL
MIC [42]: ≤ 0.05 µg/mL
MIC [43]: 0.1 µg/mL (≈ 0.119 µM)
MIC [44]: 0.4 µg/mL (≈ 0.477 µM)
MIC [45]: 0.2 µg/mL (≈ 0.239 µM)
MIC [46]: 3.13 µg/mL (≈ 3.73 µM)
half-life [47]: 1.6 h
half-life [48]: 2.4 h
half-life [49]: 3.4 h
bioavailability [50]: 35%
AUC [53]: 2100 ng·h/mL
Kp [54]: 80
Vd [55]: 14 L/kg
MIC [56]: 0.2 µg/mL (≈ 0.239 µM)
MIC [57]: <=0.05 ug ml-1
MIC [58]: 0.1 µg/mL (≈ 0.119 µM)
MIC [59]: 0.1 µg/mL (≈ 0.119 µM)
MIC [60]: 0.4 µg/mL (≈ 0.477 µM)
MIC [61]: ≤ 0.05 µg/mL
MIC [62]: 0.4 µg/mL (≈ 0.477 µM)
SMILES: C=C[C@]12OC(=O)N(CCCCn3cnc(-c4ccc(C)nc4)c3)[C@@H]1[C@@H](C)C(=O)[C@H](C)C[C@@](C)(OC)[C@H](O[C@@H]1O[C@H](C)C[C@H](N(C)C)[C@H]1O)[C@@H](C)C(=O)[C@@H](C)C(=O)O[C@@H]2CC
Activity [51]: Active
Activity [52]: Active
